From patent US20190046446A1, “APO-E MODIFIED LIPID NANOPARTICLES FOR DRUG DELIVERY TO TARGETED TISSUES AND THERAPEUTIC METHODS” (Eriochem USA, LLC, priority 2016, published 2019)
“And” between values parts separate entries of the source, which are not always exact repeats. Equal values may be shown once. Read-outs that look alike come from different tables or passages of the source.

Tests used:
[1] = system: VERO (monkey kidney epithelial cells); assay: In vitro cytotoxicity assay (MTS), VERO; assay type: cell-based
New Zealand rabbits = assay: Hepatic toxicity (GGT and GOT determination); assay type: in vivo; conditions: iv, DCX 2.5 mg/kg or equivalent, 24 hours after inoculation
Experimental: The experiment was carried out using New Zealand rabbits kept in facilities under controlled environmental conditions (temperature of 22° C.+3° C.; 12-hour light/dark cycle) and with free access to food and water. Acclimatization was performed for a minimum of 10 days prior to the start of the experiment. Each animal weighted approximately 2.8 kg and was distributed into a group of 5 animals each.
Formulations were administered intravenously (in marginal ear vein) into rabbits that had previously been intravenously injected with a combination of Ketamine-Xylazine-Acepromazine. Amounts of Gamma glutamil transaminase (GGT) and glutamic-oxaloacetic transaminase (GOT) were determined in plasma of the rabbits 24 hours after inoculation with the formulation. The results of each sample were statistically analyzed with ANOVA and Duncan Test using SPSS 11.0.

[2] = in vivo; cited from earlier work
[3] = system: A549 (lung cancer epithelial cells); assay: In vitro cytotoxicity assay (MTS), A549; assay type: cell-based, human
Experimental: 50 μL of the cell suspensions were seeded in 96-well plates in duplicate with Dulbecco's basal medium plus 10% fetal bovine serum supplemented with 10% fetal bovine serum (FBS) for PC-3, and with DMEM/Ham's F12 medium containing 10% FBS, 1% 1-glutamine for A549 cell line. Both were maintained in culture for 24 hours. The cells were then treated with serial diluted concentrations of DCX starting from 100 nM and incubated for 48 hours. At the end of incubation, 20 μL/well of MTS/PMs solution (2 mL of MTS with 100 μL of PMS solution) were added. Then, plates were incubated at 37° C., 5% CO2 for 4 hours. […] The result allowed for conditions for evaluating the growth inhibition of the Nano+DCX and Nano+DCX+ApoE3 to be defined.
(§1) Absorbance values obtained from the in vitro cytotoxicity assay of DCX, Nano+DCX, and Nano+DCX+ApoE3 samples were plotted based on the DCX concentration employed, using OriginPro 8 software (ORIGINLAB Corporation, USA). The IC50 (nM) of each of the samples was determined at 50% of the maximum absorbance value obtained, corresponding to the value obtained for the growth control. The anti-proliferation effect shown on different cells with DCX, Nano+DCX, and Nano+DCX+ApoE3 decreased cell proliferation.

[4] = Liver accumulation of Docetaxel in rabbits; assay type: in vivo; conditions: iv, 2.5 mg/kg DCX
Experimental: In measuring the liver accumulation, the animals were randomly divided into four groups following the above plasma assay. The groups were as follows:
The livers of the rabbits were totally removed at 24 hours and 36 hours, then weighed, frozen and stored at […]. The rabbit liver samples were precipitated with acetonitrile, followed by solid phase extraction (SPE), evaporation and resuspension of the resulting extract in a solvent and then analyzed by injection into LC ESI MS/MS. The determinations were performed by liquid chromatography and mass spectrometry (using a Shimadzu UFLC XR liquid chromatograph coupled to a AB Sciex 3200 QTrap mass spectrometer).
Values are Media±SEM. (N=5).

human plasma proteins = conditions: cited from earlier work
[5] = system: PC3 (prostate cancer epithelial cells); assay: In vitro cytotoxicity assay (MTS), PC3; assay type: cell-based, human
Experimental: 50 μL of the cell suspensions were seeded in 96-well plates in duplicate with Dulbecco's basal medium plus 10% fetal bovine serum supplemented with 10% fetal bovine serum (FBS) for PC-3, and with DMEM/Ham's F12 medium containing 10% FBS, 1% 1-glutamine for A549 cell line. Both were maintained in culture for 24 hours. The cells were then treated with serial diluted concentrations of DCX starting from 100 nM and incubated for 48 hours. At the end of incubation, 20 μL/well of MTS/PMs solution (2 mL of MTS with 100 μL of PMS solution) were added. Then, plates were incubated at 37° C., 5% CO2 for 4 hours.
as §1, with “control.” for “control. The anti-proliferation effect shown on different cells with DCX, Nano+DCX, and Nano+DCX+ApoE3 decreased cell proliferation.”

In the case of `CC(=O)O[C@@]12CO[C@@H]1C[C@H](O)[C@@]1(C)C(=O)[C@H](O)C3=C(C)[C@@H](OC(=O)[C@H](O)[C@@H](NC(=O)OC(C)(C)C)c4ccccc4)C[C@@](O)([C@@H](OC(=O)c4ccccc4)[C@H]21)C3(C)C` [TAXOTERE, Docetaxel], the IC50 ([1]; Normal Serum, 48 hours, listed as DCX, read-out: IC50 in VERO, individual tests) is reported as 145 nM and 140 nM and 150 nM, the IC50 ([1]; Primates, Vero, 48 h, Normal Serum, 48 hours, read-out: IC50 in VERO, individual tests) is reported as 136 nM and the IC50 ([1]; Primates, Vero, 48 h, Serum Free of Lipoprotein, 48 hours, read-out: IC50 in VERO, individual tests) is reported as 138 nM. For the same molecule, the IC50 ([1]; Primates, Vero, LP-FREE SERUM, Table 18, read-out: IC50 Normal Cell (Vero)) was 129 nM, the IC50 ([1]; Primates, Vero, NORMAL SERUM, Table 18, read-out: IC50 Normal Cell (Vero)) was 143 nM and the IC50 ([1]; Primates, Vero, Normal Serum, average of tests, read-out: IC50 in VERO) was 143 ± 2.9 nM. The IC50 ([1]; Primates, Vero, Serum Free of Lipoprotein, average of tests, read-out: IC50 in VERO) was 129 ± 8.06 nM, the IC50 ([1]; Serum Free of Lipoprotein, 48 hours, listed as DCX, read-out: IC50 in VERO, individual tests) was 106 nM (2×) and 140 nM and 153 nM and 152 nM and 111 nM and the “GGT concentration in plasma” value (New Zealand rabbits) was “No significant differences”. The “GOT concentration in plasma” value (New Zealand rabbits) was “O significant differences”, the “incidence of reactions of unpredictable acute toxicity” value [2] was 5-60% and the IC50 ([3]; Homo sapiens, A549, 48 h, Normal Serum, 48 hours, read-out: IC50 in A549, individual tests) was 8.75 nM. It also gave an IC50 ([3]; Homo sapiens, A549, 48 h, Serum Free of Lipoprotein, 48 hours, read-out: IC50 in A549, individual tests) of 25.5 nM, an IC50 ([3]; Homo sapiens, A549, LP-FREE SERUM, Table 18, read-out: IC50 A549) of 34 nM and an IC50 ([3]; Homo sapiens, A549, NORMAL SERUM, Table 18, read-out: IC50 A549) of 9 nM. The IC50 ([3]; Homo sapiens, A549, Normal Serum, average of tests, read-out: IC50 in A549) was 8.7 ± 0.7 nM, the IC50 ([3]; Homo sapiens, A549, Serum Free of Lipoprotein, average of tests, read-out: IC50 in A549) was 33.8 ± 3.2 nM and the IC50 ([3]; Homo sapiens, A549, lung cancer cell cultures, without lipoproteins, read-out: IC50) was 34 nM. The “Si A549” value ([3]; LP-FREE SERUM, SI=IC50 (Vero)/IC50 (A549)) was 4, the “SI A549” value ([3]; NORMAL SERUM, SI=IC50 (Vero)/IC50 (A549), listed as DCX) was 16 and the IC50 ([3]; Normal Serum, 48 hours, listed as DCX, read-out: IC50 in A549, individual tests) was 6.65 nM and 9.6 nM and 9.9 nM. The IC50 ([3]; Serum Free of Lipoprotein, 48 hours, listed as DCX, read-out: IC50 in A549, individual tests) was 33 nM and 37.5 nM and 45.5 nM and 36.5 nM and 25 nM, the “times more toxic in the presence of lipoproteins” value ([3]; lung cancer cell cultures) was 3.8 times and the “signs after day 12” value (rabbits; rabbit, in vivo, 3.2 mg/kg) was “anorexia and adipsia”. The “dead animals after the first cycle of inoculation” value (rabbits; rabbits, 3.2 mg/kg Docetaxel) was “dead animals were found”, the “dead animals after the second cycle of inoculation” value (rabbits; rabbits, 3.2 mg/kg Docetaxel) was “dead animals were found” and the mortality / lethality (rabbits; rabbits, 3.2 mg/kg Docetaxel (4 ml/kg), three cycles) was 80%. The “DCX Concentration in Liver” value ([4]; 24 hours) was 446 ± 66, the “DCX Concentration in Liver” value ([4]; 36 hours) was 495 ± 126 and the “free Docetaxel (fu)” value (human plasma proteins; at 1.24 μM (1 μg/ml) plasma serum) was 0.082 µM. For the same molecule, the “bound to plasma proteins” value (human plasma proteins; ultrafiltration at 37° C. and pH 7.4) was > 98%, the IC50 ([5]; Homo sapiens, Epithelial cell, 48 h, Normal Serum, 48 hours, read-out: IC50 in PC3, individual tests) was 3.5 nM and the IC50 ([5]; Homo sapiens, Epithelial cell, LP-FREE SERUM, Table 18, read-out: IC50 PC3) was 30 nM. For the same molecule, the IC50 ([5]; Homo sapiens, Epithelial cell, NORMAL SERUM, Table 18, read-out: IC50 PC3) was 4 nM, the IC50 ([5]; Homo sapiens, Epithelial cell, Normal Serum, average of tests, read-out: IC50 in PC3) was 3.5 ± 0.1 nM and the IC50 ([5]; Homo sapiens, Epithelial cell, Serum Free of Lipoprotein, average of tests, read-out: IC50 in PC3) was 30.2 ± 6.3 nM. The IC50 ([5]; Homo sapiens, Epithelial cell, prostate cancer cell cultures, without lipoproteins, read-out: IC50) was 30 nM, the “Si PC3” value ([5]; LP-FREE SERUM, SI=IC50 (Vero)/IC50 (PC3)) was 4 and the IC50 ([5]; Normal Serum, 48 hours, listed as DCX, read-out: IC50 in PC3, individual tests) was 3.9 nM and 3.3 nM and 3.4 nM. The IC50 ([5]; Serum Free of Lipoprotein, 48 hours, listed as DCX, read-out: IC50 in PC3, individual tests) was 37.5 nM and 34.5 nM and 39 nM and 10 nM and the “times more toxic in the presence of lipoproteins” value ([5]; prostate cancer cell cultures) was 7.5 times.
